In US7084155B2, “Chemokine receptor binding heterocyclic compounds” (AnorMED, priority 2000, dated 2006):

Columns and labels:
HIV-1 NL4.3 or IIIB = assay: Inhibition of HIV-1 (NL4.3 or IIIB, CXCR4 using) replication in MT-4 cells, MTT viability; format: cell-based; settings: Human immunodeficiency virus 1, IIIB, MT4, concentration protecting 50% of virus-infected cells against viral cytopathicity
Procedure: Assay for Inhibition of HIV-1 (NL4.3) Replication in MT-4 Cells Inhibition of HIV-1 NL4.3 (or IIIB, CXCR4 using) replication assays were performed as previously described (Bridger et al. J. Med. Chem. 1999, 42, 3971-3981; De […] et al. Proc. Natl. Acad. Sci, 1992, 89, 5286-5290; De […] et al. Antimicrob. Agents Chemother. 1994, 38, 668-674; Bridger et al. J. Med. Chem. 1995, 38, 366-378; Schols et al. J. Exp. Med., 1997, 186, 1383-1388). Anti-HIV activity and cytotoxicity measurements were carried out in parallel. They were based on the viability of MT-4 cells that had been infected with HIV in the presence of various concentrations of the test compounds. After the MT-4 cells were allowed to proliferate for 5 days, the number of viable cells was quantified by a tetrazolium-based colorimetric 3-(4,5-dimethylthiazol-2-yl)-2,5-diphenyltetrazolium bromide (MTT) procedure in 96-well microtrays. In all of these assays, viral input (viral multiplicity of infection, MOI) was 0.01, or 100 times the 50% cell culture infective dose (CCID50). The EC50 was defined as the concentration required to protect 50% of the virus-infected cells against viral cytopathicity.

[1] = test system: SDF-1 induced Ca flux in SUP-T1 cells; assay: Inhibition of chemokine (SDF-1) induced Ca flux measured on a FLIPR; format: cell-based; settings: Homo sapiens
Procedure: Inhibition of Chemokine Induced Ca Flux Measured on a FLIPR (Molecular Devices) Loading dye: Fluo-3, AM (Molecular Probes F-1241) is dissolved in anhydrous DMSO and stored frozen in aliquots. To increase the solubility of the dye in the loading medium, 10% (w/v) pluronic acid (Molecular Probes F-127) is added to the Fluo-3 stock solution immediately before use. HBSS+20 mM Hepes buffer+0.2% BSA, pH 7.4. HBSS 10× [(w/o phenol red and sodium bicarbonate (Gibco 14 065–049)]; Hepes buffer 1M (Gibco 15 630–056), BSA (Sigma A3675). The flux buffer is vacuum-filtered and stored refrigerated for a maximum of 5 days. Before use in the experiment, the buffer is warmed at 37° C. in a waterbath. The test compounds were diluted in flux buffer to the desired concentration and added to 4 wells of a black microplate (4 parallel measurements per compound). The following control wells were used: 100% response control (no inhibition), flux buffer was added; 100% inhibition control: chemokine was added at 5-times the concentration required to induce a Ca flux. The chemokines are diluted in flux buffer to concentrations that are 4-fold higher than the desired concentrations required for stimulation of the cells (i.e. 2.5 nM for SDF-1[…] and 0.6 nM for RANTES). The chemokines were added to untreated 96-well Sero well compound plates (International Medical, Sterilin code 611F96). In the negative control well's (baseline monitoring), flux buffer is added instead of chemokine. As a positive control to check for dye loading efficiency, 20 μM digitonin (final concentration) was also included. The agonist plate was incubated in the FLIPR (37° C.) for 15–30 min. Cell Loading Protocol for Measuring Inhibition of SDF-1[…] Induced Ca Flux in SUP-T1 Cells. SUP-T1 cells were centrifuged at room temperature (RT) and re-suspended in loading medium (RPMI-1640 containing 2% FBS and 4 μM Fluo-3, AM). The cells were incubate at room temperature for 45 min. then washed twice in flux buffer then incubated in flux buffer at room temperature for 10 min. The cells were centrifuged and re-suspended in flux buffer at a density of 3×10^6 cells per mL. A 100 uL aliquot of the cell suspension (3×10^5 cells) was added to each well of a black microplate (Costar 3603), which already contains 50 uL of a solution of the test compound (at concentrations that are 3-fold higher than the desired final compound concentrations). The microplate is then gently centrifuged at room temperature. Homogeneous spreading of the cells on the bottom of the microplate wells was then confirmed with a microscope and the microplate was incubated in the FLIPR (37° C.) for 10 min. prior to testing. Fluorescence Measurements as a Function of Time on the FLIPR The FLIPR settings (camera exposure time and laser power) are adjusted to obtain initial fluorescence values between 8,000 and 10,000 units. After monitoring a 20 second-baseline, the agonist (chemokine) (50 uL) is added by automatic pipettor with black pipette tips. Fluorescence is measured simultaneously in all wells of the microplate every 2 seconds (first 2 min) and thereafter every 6 seconds (additional 2 min). The average ca-flux measured in each set of 4 identical wells (one test compound) was calculated by the FLIPR software.

SMILES | EC50 (HIV-1 NL4.3 or IIIB) | inhibition at 20 µg/mL [1]
COC(=O)c1ccc2[nH]c(CN(Cc3ccc(CNCc4ccccn4)cc3)C3CCCc4cccnc43)nc2c1 (centres unmarked) [Example 6, N-(2-pyridinylmethyl)-N′-(5-carboxymethyl-1-H-benzimidazol-2-ylmethyl)-N′-(5,6,7,8-tetrahydro-8-quinolinyl)-1,4-benzenedimethanamine] | < 20 µg/mL | > 20%
Oc1cccc2[nH]c(CN(Cc3ccc(CNCc4ccccn4)cc3)C3CCCc4cccnc43)nc12 (centres unmarked) [Example 7, N-(2-pyridinylmethyl)-N′-(4-hydroxy-1-H-benzimidazol-2-ylmethyl)-N′-(5,6,7,8-tetrahydro-8-quinolinyl)-1,4-benzenedimethanamine] | < 20 µg/mL | > 20%
O=C(c1ccccc1)c1ccc2[nH]c(CN(Cc3ccc(CNCc4ccccn4)cc3)C3CCCc4cccnc43)nc2c1 (centres unmarked) [Example 9, N-(2-pyridinylmethyl)-N′-(5-benzoyl-1H-benzimidazol-2-ylmethyl)-N′-(5,6,7,8-tetrahydro-8-quinolinyl)-1,4-benzenedimethanamine] | < 20 µg/mL | > 20%
c1ccc(CNCc2ccc(CN(Cc3nc4cccnc4[nH]3)C3CCCc4cccnc43)cc2)nc1 (centres unmarked) [Example 10, N-(2-pyridinylmethyl)-N′-[(1H)-4-azabenzimidazol-2-ylmethyl]-N′-(5,6,7,8-tetrahydro-8-quinolinyl)-1,4-benzenedimethanamine] | < 20 µg/mL | > 20%
COc1ccc(OC)c2[nH]c(CN(Cc3ccc(CNCc4ccccn4)cc3)C3CCCc4cccnc43)nc12 (centres unmarked) [Example 15, N-(2-pyridinylmethyl)-N′-[4,7-dimethoxy-1H-benzimidazol-2-ylmethyl]-N′-(5,6,7,8-tetrahydro-8-quinolinyl)-1,4-benzenedimethanamine] | < 20 µg/mL | > 20%
c1ccc(CNCc2ccc(CN(Cc3nc4ccccc4s3)C3CCCc4cccnc43)cc2)nc1 (centres unmarked) [Example 16, N-(2-pyridinylmethyl)-N′-(benzothiazol-2-ylmethyl)-N′-(5,6,7,8-tetrahydro-8-quinolinyl)-1,4-benzenedimethanamine] | < 20 µg/mL | 
c1ccc(CNCc2ccc(CN(CCc3nc4ccccc4[nH]3)C3CCCc4cccnc43)cc2)nc1 (centres unmarked) [Example 23] | < 20 µg/mL | > 20%
c1ccc(CNCc2ccc(CN(CCCc3nc4ccccc4[nH]3)C3CCCc4cccnc43)cc2)nc1 (centres unmarked) [Example 24, N-(2-pyridinylmethyl)-N′-[3-(1H-benzimidazol-2-yl)prop-1-yl]-N′-(5,6,7,8-tetrahydro-8-quinolinyl)-1,4-benzenedimethanamine] | < 20 µg/mL | > 20%
COc1ccc(-c2cnc(CN(Cc3ccc(CNCc4ccccn4)cc3)C3CCCc4cccnc43)[nH]2)cc1 (centres unmarked) [Example 26, N-(2-pyridinylmethyl)-N′-[4-(4-methoxyphenyl)-1H-imidazol-2-ylmethyl]-N′-(5,6,7,8-tetrahydro-8-quinolinyl)-1,4-benzenedimethanamine] | < 20 µg/mL | > 20%
Fc1ccc(-c2c[nH]c(CN(Cc3ccc(CNCc4ccccn4)cc3)C3CCCc4cccnc43)n2)cc1 (centres unmarked) [Example 36, N-(2-Pyridinylmethyl)-N′-[4-(4-fluorophenyl)-1H-imidazol-2-ylmethyl]-N′-(5,6,7,8-tetrahydro-8-quinolinyl)-1,4-benzenedimethanamine] | < 20 µg/mL | > 20%
CCOc1cccnc1CNCc1ccc(CN(Cc2nc3ccccc3[nH]2)C2CCCc3cccnc32)cc1 (centres unmarked) [Example 69, N-(3-ethoxy-2-pyridinylmethyl)-N′-(1H-benzimidazol-2-ylmethyl)-N′-(5,6,7,8-tetrahydro-8-quinolinyl)-1,4-benzenedimethanamine] | < 20 µg/mL | 
[O-][n+]1ccccc1CNCc1ccc(CN(Cc2nc3ccccc3[nH]2)C2CCCc3cccnc32)cc1 (centres unmarked) [Example 70, N-(1-oxo-2-pyridinylmethyl)-N′-(1H-benzimidazol-2-ylmethyl)-N′-(5,6,7,8-tetrahydro-8-quinolinyl)-1,4-benzenedimethanamine] | < 20 µg/mL | 
c1ccc(N[C@H]2CCCC[C@@H]2N(Cc2ccc(CNCc3ccccn3)cc2)Cc2nc3ccccc3[nH]2)cc1 [Example 131] | < 20 µg/mL | 

More lines, main results first:

EC50 (HIV-1 NL4.3 or IIIB) | SMILES | inhibition at 20 µg/mL [1]
< 20 µg/mL | Fc1ccc2nc(CN(Cc3ccc(CNCc4ccccn4)cc3)C3CCCc4cccnc43)[nH]c2c1 (centres unmarked) [Example 3, N-(2-pyridinylmethyl)-N′-(5-fluoro-1-H-benzimidazol-2-ylmethyl)-N′-(5,6,7,8-tetrahydro-8-quinolinyl)-1,4-benzenedimethanamine] | > 20%
< 20 µg/mL | Cc1ccc2nc(CN(Cc3ccc(CNCc4ccccn4)cc3)C3CCCc4cccnc43)[nH]c2c1C (centres unmarked) [Example 4, N-(2-pyridinylmethyl)-N′-(4,5-dimethyl-1-H-benzimidazol-2-ylmethyl)-N′-(5,6,7,8-tetrahydro-8-quinolinyl)-1,4-benzenedimethanamine] | > 20%
< 20 µg/mL | FC(F)(F)c1cccc2nc(CN(Cc3ccc(CNCc4ccccn4)cc3)C3CCCc4cccnc43)[nH]c12 (centres unmarked) [Example 5, N-(2-pyridinylmethyl)-N′-(4-trifluoromethyl-1-H-benzimidazol-2-ylmethyl)-N′-(5,6,7,8-tetrahydro-8-quinolinyl)-1,4-benzenedimethanamine] | > 20%
< 20 µg/mL | Clc1ccc2[nH]c(CN(Cc3ccc(CNCc4ccccn4)cc3)C3CCCc4cccnc43)nc2c1 (centres unmarked) [Example 11, N-(2-pyridinylmethyl)-N′-[5-chloro-1H-benzimidazol-2-ylmethyl]-N′-(5,6,7,8-tetrahydro-8-quinolinyl)-1,4-benzenedimethanamine] | > 20%
< 20 µg/mL | COc1ccc2nc(CN(Cc3ccc(CNCc4ccccn4)cc3)C3CCCc4cccnc43)[nH]c2c1 (centres unmarked) [Example 12, N-(2-pyridinylmethyl)-N′-[5-methoxy-1H-benzimidazol-2-ylmethyl]-N′-(5,6,7,8-tetrahydro-8-quinolinyl)-1,4-benzenedimethanamine] | > 20%
< 20 µg/mL | Cc1cccc2nc(CN(Cc3ccc(CNCc4ccccn4)cc3)C3CCCc4cccnc43)[nH]c12 (centres unmarked) [Example 20, N-(2-pyridinylmethyl)-N′-(4-methylbenzimidazol-2-ylmethyl)-N′-(5,6,7,8-tetrahydro-8-quinolinyl)-1,4-benzenedimethanamine] | > 20%
< 20 µg/mL | Fc1cccc2nc(CN(Cc3ccc(CNCc4ccccn4)cc3)C3CCCc4cccnc43)[nH]c12 (centres unmarked) [Example 21, N-(2-pyridinylmethyl)-N′-(4-fluorobenzimidazol-2-ylmethyl)-N′-(5,6,7,8-tetrahydro-8-quinolinyl)-1,4-benzenedimethanamine] | > 20%
< 20 µg/mL | Brc1cccc2nc(CN(Cc3ccc(CNCc4ccccn4)cc3)C3CCCc4cccnc43)[nH]c12 (centres unmarked) [Example 22, N-(2-pyridinylmethyl)-N′-(4-bromobenzimidazol-2-ylmethyl)-N′-(5,6,7,8-tetrahydro-8-quinolinyl)-1,4-benzenedimethanamine] | > 20%
